From patent publication US8436043B2 (Takeda Pharmaceutical Company Limited, priority 2008, dated 2013) come the findings set out here.

The first experiment deals with T1, human glucagon receptor (Homo sapiens, UniProt P47871).
T1 construct: made in house; host or cells: FreeStyle CHO cells, transient transfection with pMSRαneo/hGCGR; membrane fraction (35,000 rpm pellet)
T1 sequence (P47871 26-477): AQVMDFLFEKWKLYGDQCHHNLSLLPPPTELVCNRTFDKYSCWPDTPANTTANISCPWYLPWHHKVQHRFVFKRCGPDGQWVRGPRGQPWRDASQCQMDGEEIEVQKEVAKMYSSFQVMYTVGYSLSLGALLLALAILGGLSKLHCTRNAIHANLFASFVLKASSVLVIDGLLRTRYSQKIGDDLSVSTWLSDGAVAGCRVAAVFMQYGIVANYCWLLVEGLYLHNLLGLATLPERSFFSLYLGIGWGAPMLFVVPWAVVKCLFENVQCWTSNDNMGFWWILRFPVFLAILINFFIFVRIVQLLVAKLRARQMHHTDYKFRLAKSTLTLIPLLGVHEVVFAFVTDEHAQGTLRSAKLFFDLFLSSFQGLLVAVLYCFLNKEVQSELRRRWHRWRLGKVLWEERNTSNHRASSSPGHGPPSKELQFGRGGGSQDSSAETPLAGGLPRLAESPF
Nature of the experiment: Glucagon binding inhibitory activity ([125I]-glucagon binding to glucagon receptor membrane protein). To be noted: human glucagon receptor membrane protein, [125I]-glucagon, 90 min room temperature. The procedure: The glucagon binding inhibitory action of the compound of the present invention was evaluated by the following method.
(1) Cloning of Human Glucagon Receptor Gene
Human glucagon receptor gene was cloned by PCR reaction using human pancreas Marathon-ready cDNA (Clontech) as a template and the following primer set.
PCR reaction was performed using Advantage 2 polymerase (Clontech) and according to the attached protocol. The obtained PCR product was electrophoresed on an agarose gel (1%). An about 1.4 kb of DNA fragment containing a glucagon receptor gene was recovered from the gel and digested with restriction enzymes EcoRI and NotI. DNA treated with the restriction enzymes was electrophoresed on an agarose gel (1%). An about 1.4 kb of DNA fragment was recovered and ligated to plasmid pMSRαneo digested with restriction enzymes EcoRI and NotI to construct a human-type glucagon receptor expression plasmid DNA “pMSRαneo/hGCGR”.
(2) Preparation of Glucagon Receptor Membrane Protein
A human-type glucagon receptor was expressed using FreeStyle CHO Expression System (Invitrogen). A transient expression in FreeStyle CHO cell was performed using a human-type glucagon receptor expression plasmid DNA “pMSRαneo/hGCGR” and according to the manual attached to the FreeStyle CHO Expression System. The above-mentioned DNA was transfected and the cultured with shaking for 2 days (37° C., 8% CO2, 125 rpm). 2400 ml of culture medium was centrifuged at 2,000 rpm for 10 min and the cells were collected. The collected cells were washed with PBS, suspended in homogenate buffer [10 mM NaHCO3 (pH 7.4), 1 mM EDTA, Complete EDTA-free (Roche, 1 tablet/50 ml)] and disrupted by polytron cell disrupter (Kinematica AG). Disruption solution was centrifuged at 2,000 rpm for 10 min and the supernatant was collected.
(3) Measurement of Glucagon Binding Inhibitory Activity
The plate was stood for 90 min at room temperature. The reaction solution was transferred from the reaction plate to a 96 well unifilter GF/C plate (Perkin Elmer Inc.) using a cell harvester (Perkin Elmer Inc.) and the membrane fraction was collected on the filter by suction. The filter was presoaked in 2 mg/ml of polyethyleneimine to prevent non-specific adsorption of labeled ligand. The filter was washed 4 times with a reaction buffer and dried for 2 hr at 42° C. To each well was added 25 μl of scintillator (MicroScint0; Perkin Elmer Inc.), and the fluorescence amount was measured using a microplate scintillation counter (TopCount NXT™; Perkin Elmer Inc.).
In addition, the inhibitory rate (%) of the well added with the test compound (10 μM; containing 0.4% DMSO) was calculated, using the reaction rate of the well added only with 0.4% DMSO as 0% inhibitory rate, and the reaction rate of the well added with non-labeled glucagon (final concentration 1 μM) as 100% inhibitory rate.
Compound `CN(CCC(=O)O)C(=O)c1ccc(NC(c2cn(-c3ccc(OC(F)(F)F)cc3)nc2OCc2ccccc2)C2CCCCC2)cc1` (stereo not drawn) [Example 61, 3-{[(4-{[{3-(benzyloxy)-1-[4-(trifluoromethoxy)phenyl]-1H-pyrazol-4-yl}(cyclohexyl)methyl]amino}phenyl)carbonyl](methyl)amino}-propanoic acid] came in with an IC50 of 320 nM.

Staying with this experiment, now noted: test compound 10 μM; 0.4% DMSO = 0%, non-labeled glucagon 1 μM = 100%; read-out: inhibitory rate (%) at 10 μM.
For `CCc1nn(-c2ccc(OC)cc2)cc1C(CC(C)C)Nc1ccc(C(=O)NCCC(=O)O)cc1` (stereo not drawn) [Example 48, 3-({[4-({1-[3-ethyl-1-(4-methoxyphenyl)-1H-pyrazol-4-yl]-3-methylbutyl}amino)phenyl]carbonyl}amino)propanoic acid], the inhibition at 10 µM was 63%.
Take `CCc1nn(-c2ccc(OC)cc2)cc1C(Nc1ccc(C(=O)NCCC(=O)O)cc1)C1CCCCC1` (stereo not drawn) [Example 50, 3-({[4-({cyclohexyl[3-ethyl-1-(4-methoxyphenyl)-1H-pyrazol-4-yl]methyl}amino)phenyl]carbonyl}amino)propanoic acid]: the inhibition at 10 µM came to 68%.
Consider `CCc1nn(-c2ccc(OC)cc2)cc1C(Nc1ccc(C(=O)N(C)CCC(=O)O)cc1)C1CCCCC1` (stereo not drawn) [Example 51, 3-[{[4-({cyclohexyl[3-ethyl-1-(4-methoxyphenyl)-1H-pyrazol-4-yl]methyl}amino)phenyl]carbonyl}(methyl)amino]propanoic acid], for which the inhibition at 10 µM amounted to 60%.
Same read-out and setting: the result for `COc1ccc(-n2cc(C(Nc3ccc(C(=O)NCCC(=O)O)cc3)C3CCCCC3)c(C(C)C)n2)cc1` (stereo not drawn) [Example 52, 3-({[4-({cyclohexyl[1-(4-methoxyphenyl)-3-(1-methylethyl)-1H-pyrazol-4-yl]methyl}amino)phenyl]carbonyl}amino)propanoic acid] reads 63%.
For the compound `COc1ccc(-n2cc(C(CC(C)C)Nc3ccc(C(=O)NCCC(=O)O)cc3)c(C(C)C)n2)cc1` (stereo not drawn) [Example 54, 3-({[4-({1-[1-(4-methoxyphenyl)-3-(1-methylethyl)-1H-pyrazol-4-yl]-3-methylbutyl}amino)phenyl]carbonyl}amino)propanoic acid], the inhibition at 10 µM was found to be 62%.
As to `CCn1nc(-c2ccc(C(F)(F)F)cc2)cc1C(Nc1ccc(C(=O)NCCC(=O)O)cc1)C1CCCCC1` (stereo not drawn) [Example 56, 3-[({4-[(cyclohexyl{1-ethyl-3-[4-(trifluoromethyl)phenyl]-1H-pyrazol-5-yl}methyl)amino]phenyl}carbonyl)amino]propanoic acid], the inhibition at 10 µM came to 76%.
Take `CCn1nc(-c2ccc(OC(F)(F)F)cc2)cc1C(Nc1ccc(C(=O)N(C)CCC(=O)O)cc1)C1CCCCC1` (stereo not drawn) [Example 58, 3-[({4-[(cyclohexyl{1-ethyl-3-[4-(trifluoromethoxy)phenyl]-1H-pyrazol-5-yl}methyl)amino]phenyl}carbonyl)(methyl)amino]propanoic acid]: the inhibition at 10 µM came out at 69%.
Consider `CCn1nc(-c2ccc(OC(F)(F)F)cc2)cc1C(CC(C)C)Nc1ccc(C(=O)N(C)CCC(=O)O)cc1` (stereo not drawn) [Example 59, 3-[({4-[(1-{1-ethyl-3-[4-(trifluoromethoxy)phenyl]-1H-pyrazol-5-yl}-3-methylbutyl)amino]phenyl}carbonyl)(methyl)amino]propanoic acid], for which the inhibition at 10 µM stood at 61%.
For the compound `O=C(O)CCNC(=O)c1ccc(NC(c2cn(-c3ccc(OC(F)(F)F)cc3)nc2OCc2ccccc2)C2CCCCC2)cc1` (stereo not drawn) [Example 60, 3-{[(4-{[{3-(benzyloxy)-1-[4-(trifluoromethoxy)phenyl]-1H-pyrazol-4-yl}(cyclohexyl)methyl]amino}phenyl)carbonyl]amino}propanoic acid], the inhibition at 10 µM came to 71%.
The same measure, in the same setting: the result for `CN(CCC(=O)O)C(=O)c1ccc(NC(c2cn(-c3ccc(OC(F)(F)F)cc3)nc2OCc2ccccc2)C2CCCCC2)cc1` (stereo not drawn) [Example 61, 3-{[(4-{[{3-(benzyloxy)-1-[4-(trifluoromethoxy)phenyl]-1H-pyrazol-4-yl}(cyclohexyl)methyl]amino}phenyl)carbonyl](methyl)amino}-propanoic acid] reads 75%; that for `COc1nn(-c2ccc(OC(F)(F)F)cc2)cc1C(Nc1ccc(C(=O)NCCC(=O)O)cc1)C1CCCCC1` (stereo not drawn) [Example 62, 3-[({4-[(cyclohexyl{3-methoxy-1-[4-(trifluoromethoxy)phenyl]-1H-pyrazol-4-yl}methyl)amino]phenyl}carbonyl)amino]propanoic acid], 68%; that for `COc1nn(-c2ccc(OC(F)(F)F)cc2)cc1C(Nc1ccc(C(=O)N(C)CCC(=O)O)cc1)C1CCCCC1` (stereo not drawn) [Example 63, 3-[({4-[(cyclohexyl{3-methoxy-1-[4-(trifluoromethoxy)phenyl]-1H-pyrazol-4-yl}methyl)amino]phenyl}carbonyl)(methyl)amino]propanoic acid], 72%.
The same measure, in the same setting: then `CC(C)Oc1nn(-c2ccc(OC(F)(F)F)cc2)cc1C(Nc1ccc(C(=O)NCCC(=O)O)cc1)C1CCCCC1` (stereo not drawn) [Example 64, 3-[({4-[(cyclohexyl{3-(1-methylethoxy)-1-[4-(trifluoromethoxy)phenyl]-1H-pyrazol-4-yl}methyl)amino]phenyl}carbonyl)amino]propanoic acid], with 70%; and `CC(C)Oc1nn(-c2ccc(OC(F)(F)F)cc2)cc1C(Nc1ccc(C(=O)N(C)CCC(=O)O)cc1)C1CCCCC1` (stereo not drawn) [Example 65, 3-[({4-[(cyclohexyl{3-(1-methylethoxy)-1-[4-(trifluoromethoxy)phenyl]-1H-pyrazol-4-yl}methyl)amino]phenyl}carbonyl)(methyl)amino]propanoic acid], with 64%.
In the case of `O=C(O)CCNC(=O)c1ccc(NC(c2cn(-c3ccccc3)nc2OCc2ccccc2)C2CCCCC2)cc1` (stereo not drawn) [Example 66, 3-({[4-({[3-(benzyloxy)-1-phenyl-1H-pyrazol-4-yl](cyclohexyl)methyl}amino)phenyl]carbonyl}amino)propanoic acid], the inhibition at 10 µM stood at 74%.
Consider `CN(CCC(=O)O)C(=O)c1ccc(NC(c2cn(-c3ccccc3)nc2OCc2ccccc2)C2CCCCC2)cc1` (stereo not drawn) [Example 67, 3-[{[4-({[3-(benzyloxy)-1-phenyl-1H-pyrazol-4-yl](cyclohexyl)methyl}amino)phenyl]carbonyl}(methyl)amino]-propanoic acid], for which the inhibition at 10 µM turned out to be 72%.
For the compound `COc1ccc(-n2cc(C(Nc3ccc(C(=O)NCCC(=O)O)cc3)C3CCCCC3)c(CN3CCOCC3)n2)cc1` (stereo not drawn) [Example 68, 3-({[4-({cyclohexyl[1-(4-methoxyphenyl)-3-(morpholin-4-ylmethyl)-1H-pyrazol-4-yl]methyl}amino)phenyl]carbonyl}amino)propanoic acid], the inhibition at 10 µM came to 66%.
Take `COc1cccc(-n2cc(C(Nc3ccc(C(=O)N(C)CCC(=O)O)cc3)C3CCCCC3)c(C)n2)c1` (stereo not drawn) [Example 70, 3-[{[4-({cyclohexyl[1-(3-methoxyphenyl)-3-methyl-1H-pyrazol-4-yl]methyl}amino)phenyl]carbonyl}(methyl)amino]propanoic acid]: the inhibition at 10 µM was 75%.
The same measure, in the same setting: then `Cc1nn(-c2cccc(Cl)c2)cc1C(Nc1ccc(C(=O)N(C)CCC(=O)O)cc1)C1CCCCC1` (stereo not drawn) [Example 71, 3-[{[4-({[1-(3-chlorophenyl)-3-methyl-1H-pyrazol-4-yl](cyclohexyl)methyl}amino)phenyl]carbonyl}(methyl)amino]-propanoic acid], with 71%; and `COc1ccccc1-n1cc(C(Nc2ccc(C(=O)N(C)CCC(=O)O)cc2)C2CCCCC2)c(C)n1` (stereo not drawn) [Example 72, 3-[{[4-({[1-(2-methoxyphenyl)-3-methyl-1H-pyrazol-4-yl](cyclohexyl)methyl}amino)phenyl]carbonyl}(methyl)amino]-propanoic acid], with 51%; and `Cc1nn(-c2ccccc2Cl)cc1C(Nc1ccc(C(=O)N(C)CCC(=O)O)cc1)C1CCCCC1` (stereo not drawn) [Example 73, 3-[{[4-({[1-(2-chlorophenyl)-3-methyl-1H-pyrazol-4-yl](cyclohexyl)methyl}amino)phenyl]carbonyl}(methyl)amino]-propanoic acid], with 59%.
As to `COc1cccc(-n2cc(C)c(C(Nc3ccc(C(=O)N(C)CCC(=O)O)cc3)C3CCCCC3)n2)c1` (stereo not drawn) [Example 75, 3-[{[4-({cyclohexyl[1-(3-methoxyphenyl)-4-methyl-1H-pyrazol-3-yl]methyl}amino)phenyl]carbonyl}(methyl)amino]propanoic acid], the inhibition at 10 µM worked out at 61%.
Consider `COCc1nn(-c2cccc(OC)c2)cc1C(Nc1ccc(C(=O)N(C)CCC(=O)O)cc1)C1CCCCC1` (stereo not drawn) [Example 76], for which the inhibition at 10 µM stood at 68%.

As usually defined, the IC50 is the concentration needed to halve the response being measured.
